Consider 15 compounds from patent US20250304551A1 (SHANGHAI APEIRON THERAPEUTICS COMPANY LIMITED, priority 2022, published 2025).

The target of test [1] is T1, Human KIF18A (amino acid sequence 1-417) (Homo sapiens, UniProt Q8NI77).
T1 construct: purchased Viva Biotech (Shanghai) Ltd
Put plainly: Enzyme activity detection experiment (ADP-Glo, KIF18A with tubulin and ATP). It counts as biochemical. To be noted: tubulin 60 μg/mL, ATP 25 μM, KIF18A protein 2.5 nM, 120 minutes at ambient temperature, ADP-Glo chemiluminescence. The gist of the method:
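KIF18A (2.5 nM) was incubated with tubulin (60 μg/mL as added), ATP (25 μM) and serially diluted compound for 120 min at ambient temperature. ADP formed was detected by ADP-Glo: reagent for 30 min, then detection reagent for 30 min in the dark, with chemiluminescence read-out.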

For the next test, the system named is OVCAR3 cells. Put plainly: Cell proliferation activity test, OVCAR3 (CyQUANT Direct). It is filed as cell-based. The following applies: Homo sapiens, OVCAR-3, 72 h, 3 days incubation, CyQUANT fluorescence detection, read-out: OVCAR-3 Cell Viability_IC50_nM. The essentials: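 OVCAR3 cells seeded overnight, then exposed to compounds at 0-10 μM final (0.20% DMSO) for 3 days at 37° C. Cell number read by CyQUANT Direct fluorescence after 60 min at 37° C.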

The next test deals with HT29 cells. Put plainly: CyQuant cell proliferation activity test, HT29. To be noted: Homo sapiens, HT-29, 72 h, HT29 2000 cells per well, 3 days incubation, initial concentration 3000 nM, IC50 by XLFIT, read-out: HT-29 Cell Viability_IC50_nM. It counts as cell-based. The procedure:
Materials and Cells: HT29 cells were purchased from Nanjing Cobioer Biosciences Co., Ltd.; RPM-1640 medium, fetal bovine serum, Trypsin-EDTA (0.25%), DMSO, 96-well plates, and CyQuant reagents were purchased from ThermoFisher (USA).
Cell Culture: Culture HT29 cells with RPMI-1640 containing 10% fetal bovine serum under the condition of 37° C. and 5% CO2. Only cells in the logarithmic growth phase can be used for the test.
Cell Proliferation Activity Test: Use the CyQuant reagent to detect the proliferation inhibitory activity of compounds on HT29 cells. Adjust the cell density and inoculate 100 μL per well into the 96-well plate (HT29 at 2000 cells per well), then incubate overnight under the condition of 37° C. and […]. Add compounds of various target concentrations (initial concentration of 3000 nM, 3-fold dilution, 9 concentration gradients), and make the DMSO content 0.20%. Incubate the cell plates at 37° C. and 5% CO2 for 3 days. Incubate with CyQuant reagent for 1 h, read the plate by Envision, and calculate IC50 using XLFIT.

The structures appear in SMILES notation.

T1 sequence (Q8NI77 1-417): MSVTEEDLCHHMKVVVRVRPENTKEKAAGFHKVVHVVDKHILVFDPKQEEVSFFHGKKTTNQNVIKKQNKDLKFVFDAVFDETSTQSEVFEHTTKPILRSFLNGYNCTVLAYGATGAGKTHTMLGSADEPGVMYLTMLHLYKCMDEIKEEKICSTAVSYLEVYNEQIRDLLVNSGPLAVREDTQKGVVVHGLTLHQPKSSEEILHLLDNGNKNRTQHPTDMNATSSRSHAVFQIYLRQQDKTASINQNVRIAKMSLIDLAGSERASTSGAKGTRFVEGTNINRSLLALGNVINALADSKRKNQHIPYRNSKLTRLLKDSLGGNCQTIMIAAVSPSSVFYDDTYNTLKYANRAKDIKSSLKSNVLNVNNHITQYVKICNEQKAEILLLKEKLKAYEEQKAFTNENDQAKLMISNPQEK
T1 sequence (Q2XVP4 whole entry partner): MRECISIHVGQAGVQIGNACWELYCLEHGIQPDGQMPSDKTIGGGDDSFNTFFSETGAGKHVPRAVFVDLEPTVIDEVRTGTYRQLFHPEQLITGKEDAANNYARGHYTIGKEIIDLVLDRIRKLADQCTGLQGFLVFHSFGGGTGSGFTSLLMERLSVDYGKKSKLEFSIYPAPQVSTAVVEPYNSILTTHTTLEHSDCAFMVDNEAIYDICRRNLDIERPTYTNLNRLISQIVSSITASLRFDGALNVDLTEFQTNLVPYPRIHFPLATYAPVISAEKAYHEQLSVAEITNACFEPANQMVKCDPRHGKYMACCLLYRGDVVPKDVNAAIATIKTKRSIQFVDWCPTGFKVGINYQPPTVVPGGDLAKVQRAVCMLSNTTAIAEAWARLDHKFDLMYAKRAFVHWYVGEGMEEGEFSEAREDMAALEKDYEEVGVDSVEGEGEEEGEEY
T1 sequence (P02554 whole entry partner): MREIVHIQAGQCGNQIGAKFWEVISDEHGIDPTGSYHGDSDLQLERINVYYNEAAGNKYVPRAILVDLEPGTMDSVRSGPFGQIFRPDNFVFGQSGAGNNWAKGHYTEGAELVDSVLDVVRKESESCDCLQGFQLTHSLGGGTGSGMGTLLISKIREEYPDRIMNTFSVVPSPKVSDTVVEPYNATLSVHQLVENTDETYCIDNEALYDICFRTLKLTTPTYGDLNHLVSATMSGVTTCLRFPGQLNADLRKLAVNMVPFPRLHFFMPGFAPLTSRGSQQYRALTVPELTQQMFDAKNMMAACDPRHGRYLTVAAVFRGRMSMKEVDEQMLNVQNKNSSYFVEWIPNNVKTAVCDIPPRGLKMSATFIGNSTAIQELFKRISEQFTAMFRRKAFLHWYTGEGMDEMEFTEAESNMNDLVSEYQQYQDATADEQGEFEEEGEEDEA

Turning to `Cc1cc(-c2cn(-c3ccc(NS(=O)(=O)CCO)cc3N3CCC4(CC3)CC4)nn2)nc(C2=CCOCC2)n1` [Example 35, N-(4-(4-(2-(3,6-dihydro-2H-pyran-4-yl)-6-methylpyrimidin-4-yl)-1H-1,2,3-triazol-1-yl)-3-(6-azaspiro[2.5]octan-6-yl)phenyl)-2-hydroxyethane-1-sulfonamide], the IC50 amounted to 42 nM in test [1], 23 nM with OVCAR3 cells and 21 nM with HT29 cells.
Take `Cc1cc(-c2cn(-c3ccc(NS(=O)(=O)CCO)cc3N3CCC4(CC3)CC4)nn2)nc(C2CCOCC2)n1` [Example 36, 2-hydroxy-N-(4-(4-(6-methyl-2-(tetrahydro-2H-pyran-4-yl)pyrimidin-4-yl)-1H-1,2,3-triazol-1-yl)-3-(6-azaspiro[2.5]octan-6-yl)phenyl)ethane-1-sulfonamide]: the results for the IC50 (in test [1]; with OVCAR3 cells; with HT29 cells) were 50 nM, 30 nM and 39 nM, respectively.
On the same counts, the results for `Cc1cc(-c2cn(-c3ccc(NS(=O)(=O)CCO)cc3N3CCC4(CC3)CC4)nn2)nc(C2=CCC(F)(F)CC2)n1` [Example 37, N-(4-(4-(2-(4,4-difluorocyclohex-1-en-1-yl)-6-methylpyrimidin-4-yl)-1H-1,2,3-triazol-1-yl)-3-(6-azaspiro[2.5]octan-6-yl)phenyl)-2-hydroxyethane-1-sulfonamide] are 253 nM, 87 nM and 161 nM.
Turning to `Cc1cc(-c2cn(-c3ccc(NS(=O)(=O)CCO)cc3N3CCC4(CC3)CC4)nn2)cc(-c2cnn(C)c2)n1` [Example 39, 2-hydroxy-N-(4-(4-(2-methyl-6-(1-methyl-1H-pyrazol-4-yl)pyridin-4-yl)-1H-1,2,3-triazol-1-yl)-3-(6-azaspiro[2.5]octan-6-yl)phenyl)ethane-1-sulfonamide], the IC50 in test [1] was determined as 414 nM; in the test with OVCAR3 cells it was 1330 nM; in the test with HT29 cells it was 1570 nM.
On the same counts, the results for `Cc1cc(-c2cn(-c3ccc(NS(=O)(=O)CCO)cc3N3CCC4(CC3)CC4)nn2)nc(N2CCCCC2)n1` [Example 41, 2-hydroxy-N-(4-(4-(6-methyl-2-(piperidin-1-yl)pyrimidin-4-yl)-1H-1,2,3-triazol-1-yl)-3-(6-azaspiro[2.5]octan-6-yl)phenyl)ethanesulfonamide] are 44 nM, 15 nM and 14 nM.
The corresponding values for `Cc1cc(-c2cn(-c3ccc(NS(=O)(=O)CCO)cc3N3CCC4(CC3)CC4)nn2)nc(N2CCOCC2)n1` [Example 42, 2-hydroxy-N-(4-(4-(6-methyl-2-morpholinopyrimidin-4-yl)-1H-1,2,3-triazol-1-yl)-3-(6-azaspiro[2.5]octan-6-yl)phenyl)ethanesulfonamide] are 19 nM, 12 nM and 15 nM.
On the same counts, the results for `Cc1cc(-c2cn(-c3ccc(NS(=O)(=O)CCO)cc3N3CCC4(CC3)CC4)nn2)nc(N2CCO[C@@H](C)C2)n1` [Example 43, (S)-2-hydroxy-N-(4-(4-(6-methyl-2-(2-methylmorpholino)pyrimidin-4-yl)-1H-1,2,3-triazol-1-yl)-3-(6-azaspiro[2.5]octan-6-yl)phenyl)ethane-1-sulfonamide] are 44 nM, 16 nM and 18 nM.
Consider `Cc1cc(-c2cn(-c3ccc(NS(=O)(=O)CCO)cc3N3CCC4(CC3)CC4)nn2)nc(N2C[C@@H](C)O[C@@H](C)C2)n1` [Example 44, N-(4-(4-(2-((2R,6S)-2,6-dimethylmorpholino)-6-methylpyrimidin-4-yl)-1H-1,2,3-triazol-1-yl)-3-(6-azaspiro[2.5]octan-6-yl)phenyl)-2-hydroxyethane-1-sulfonamide], for which the values for the IC50 (in test [1]; in the test on OVCAR3 cells; in the test with HT29 cells) were 22 nM, 14 nM and 12 nM, respectively.
The corresponding values for `Cc1cc(-c2cn(-c3ccc(NS(=O)(=O)CCO)cc3N3CCC4(CC3)CC4)nn2)nc(N2CCOCC2C)n1` (stereo not drawn) [Example 45] are 88 nM, 22 nM and 13 nM.
Consider `Cc1cc(-c2cn(-c3ccc(NS(=O)(=O)CCO)cc3N3CCC4(CC3)CC4)nn2)nc(N2[C@H](C)COC[C@@H]2C)n1` [Example 46, N-(4-(4-(2-((3S,5R)-3,5-dimethylmorpholin)-6-methylpyrimidin-4-yl)-1H-1,2,3-triazol-1-yl)-3-(6-azaspiro[2.5]octan-6-yl)phenyl)2-hydroxyethanesulfonamide], for which the values for the IC50 (in test [1]; with OVCAR3 cells; with HT29 cells) were 151 nM, 14 nM and 39 nM, respectively.
On the same counts, the results for `Cc1cc(-c2cn(-c3ccc(NS(=O)(=O)CCO)cc3N3CCC4(CC3)CC4)nn2)nc(N2C3CCC2COC3)n1` [Example 48, N-(4-(4-(2-(3-oxa-8-azabicyclo[3.2.1]octan-8-yl)-6-methylpyrimidin-4-yl)-1H-1,2,3-triazol-1-yl)-3-(6-azaspiro[2.5]octan-6-yl)phenyl)-2-hydroxyethane-1-sulfonamide] are 22 nM, 17 nM and 14 nM.
Take `Cc1cc(-c2cn(-c3ccc(NS(=O)(=O)CCO)cc3N3CCC4(CC3)CC4)nn2)nc(N2C3COCC2C3)n1` [Example 49, N-(4-(4-(2-(3-oxa-6-azabicyclo[3.1.1]heptan-6-yl)-6-methylpyrimidin-4-yl)-1H-1,2,3-triazol-1-yl)-3-(6-azaspiro[2.5]octan-6-yl)phenyl)-2-hydroxyethane-1-sulfonamide]: the IC50 in test [1] was 61 nM; in the test with OVCAR3 cells, 54 nM; with HT29 cells, 31 nM.
The corresponding values for `Cc1cc(-c2cn(-c3ccc(NS(=O)(=O)CCO)cc3N3CCC4(CC3)CC4)nn2)nc(N2[C@H](C)CC(F)(F)C[C@@H]2C)n1` [Example 50, N-(4-(4-(2-((2S,6R)-4,4-difluoro-2,6-dimethylpiperidin-1-yl)-6-methylpyrimidin-4-yl)-1H-1,2,3-triazol-1-yl)-3-(6-azaspiro[2.5]octan-6-yl)phenyl)-2-hydroxyethane-1-sulfonamide] are 1050 nM, 222 nM and 245 nM.
With `COc1cc(-c2cn(-c3ccc(NS(=O)(=O)CCO)cc3N3CCC4(CC3)CC4)nn2)nc(N2CCC(F)(F)CC2)n1` [Example 51, N-(4-(4-(2-(4,4-difluoropiperidin-1-yl)-6-methoxypyrimidin-4-yl)-1H-1,2,3-triazol-1-yl)-3-(6-azaspiro[2.5]octan-6-yl)phenyl)-2-hydroxyethanesulfonamide], the IC50 worked out at 131 nM in test [1], 24 nM with OVCAR3 cells and 22 nM in the test with HT29 cells.
The corresponding values for `O=S(=O)(CCO)Nc1ccc(-n2cc(-c3cc(O)nc(N4CCC(F)(F)CC4)n3)nn2)c(N2CCC3(CC2)CC3)c1` [Example 52, N-(4-(4-(2-(4,4-difluoropiperidin-1-yl)-6-hydroxypyrimidin-4-yl)-1H-1,2,3-triazol-1-yl)-3-(6-azaspiro[2.5]octan-6-yl)phenyl)-2-hydroxyethane-1-sulfonamide] are 25 nM, 110 nM and 299 nM.
